Reference: publication PMC10176470, “Engaging a Non-catalytic Cysteine Residue Drives Potent and Selective Inhibition of Caspase-6” (Journal of the American Chemical Society, 2023)

Columns and labels:
Format in all cases: cell-based
[1] = target: proteins of HEK293T cells transiently overexpressing caspase-6 (Homo sapiens, UniProt Q02790); conditions: exp_ref Probe; protein FKBP4 (Q02790); analysis C6
[2] = target: proteins of HEK293T cells transiently overexpressing caspase-6 (Homo sapiens, UniProt Q9NX40); conditions: protein OCIAD1 (Q9NX40); exp_ref Probe; analysis C6
[3] = target: proteins of HEK293T cells transiently overexpressing caspase-6 (Homo sapiens, UniProt P12004); conditions: protein PCNA (P12004)
Chain of proteins of HEK293T cells transiently overexpressing caspase-6 (Homo sapiens, UniProt P12004) (P12004 whole entry): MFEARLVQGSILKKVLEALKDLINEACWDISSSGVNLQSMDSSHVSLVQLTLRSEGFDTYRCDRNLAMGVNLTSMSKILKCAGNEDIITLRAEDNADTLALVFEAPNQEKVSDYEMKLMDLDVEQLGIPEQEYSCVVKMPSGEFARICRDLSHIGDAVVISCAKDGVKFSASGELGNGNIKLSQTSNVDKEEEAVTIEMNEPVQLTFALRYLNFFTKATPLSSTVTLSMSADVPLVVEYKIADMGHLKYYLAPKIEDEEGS

[4] = target: proteins of HEK293T cells transiently overexpressing caspase-6 (Homo sapiens, UniProt P63104); conditions: exp_ref Probe; protein YWHAZ (P63104); analysis C6
Chain of proteins of HEK293T cells transiently overexpressing caspase-6 (Homo sapiens, UniProt P63104) (P63104 whole entry): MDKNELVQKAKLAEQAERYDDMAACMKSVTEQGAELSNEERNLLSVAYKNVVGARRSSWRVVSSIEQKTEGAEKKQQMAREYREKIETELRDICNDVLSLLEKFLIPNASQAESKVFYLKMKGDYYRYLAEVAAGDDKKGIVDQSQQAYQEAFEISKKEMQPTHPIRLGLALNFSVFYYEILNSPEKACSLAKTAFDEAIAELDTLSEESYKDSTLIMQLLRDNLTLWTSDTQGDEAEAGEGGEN

[5] = target: proteins of HEK293T cells transiently overexpressing caspase-6 (Homo sapiens, UniProt P46060); conditions: exp_ref Probe; protein RANGAP1 (P46060); analysis C6
Chain of proteins of HEK293T cells transiently overexpressing caspase-6 (Homo sapiens, UniProt P46060) (P46060 whole entry): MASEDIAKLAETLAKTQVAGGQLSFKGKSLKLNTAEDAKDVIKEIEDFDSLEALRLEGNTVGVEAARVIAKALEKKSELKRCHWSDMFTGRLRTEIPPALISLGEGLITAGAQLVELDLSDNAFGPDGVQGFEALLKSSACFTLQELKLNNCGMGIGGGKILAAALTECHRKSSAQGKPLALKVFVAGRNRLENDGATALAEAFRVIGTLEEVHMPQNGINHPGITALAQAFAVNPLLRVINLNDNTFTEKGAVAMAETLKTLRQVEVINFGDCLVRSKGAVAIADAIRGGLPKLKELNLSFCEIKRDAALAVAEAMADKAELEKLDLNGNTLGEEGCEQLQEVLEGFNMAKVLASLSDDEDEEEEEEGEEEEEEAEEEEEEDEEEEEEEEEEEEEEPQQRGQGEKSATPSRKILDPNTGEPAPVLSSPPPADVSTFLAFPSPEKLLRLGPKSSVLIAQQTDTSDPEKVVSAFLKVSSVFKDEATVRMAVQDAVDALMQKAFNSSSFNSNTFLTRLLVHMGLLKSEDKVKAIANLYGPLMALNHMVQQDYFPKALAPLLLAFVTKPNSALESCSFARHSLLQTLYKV

[6] = target: proteins of HEK293T cells transiently overexpressing caspase-6 (Homo sapiens, UniProt P04183); conditions: exp_ref Probe; protein TK1 (P04183); analysis C6
Chain of proteins of HEK293T cells transiently overexpressing caspase-6 (Homo sapiens, UniProt P04183) (P04183 whole entry): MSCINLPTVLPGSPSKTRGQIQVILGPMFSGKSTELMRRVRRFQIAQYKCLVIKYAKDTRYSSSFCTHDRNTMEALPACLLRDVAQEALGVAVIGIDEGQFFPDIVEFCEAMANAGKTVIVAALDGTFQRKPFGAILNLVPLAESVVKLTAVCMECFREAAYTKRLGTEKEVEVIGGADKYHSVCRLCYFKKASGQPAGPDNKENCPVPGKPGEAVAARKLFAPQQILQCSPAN

[7] = target: proteins of HEK293T cells transiently overexpressing caspase-6 (Homo sapiens, UniProt Q9UL46); conditions: protein PSME2 (Q9UL46); exp_ref Probe; analysis C6
Chain of proteins of HEK293T cells transiently overexpressing caspase-6 (Homo sapiens, UniProt Q9UL46) (Q9UL46 whole entry): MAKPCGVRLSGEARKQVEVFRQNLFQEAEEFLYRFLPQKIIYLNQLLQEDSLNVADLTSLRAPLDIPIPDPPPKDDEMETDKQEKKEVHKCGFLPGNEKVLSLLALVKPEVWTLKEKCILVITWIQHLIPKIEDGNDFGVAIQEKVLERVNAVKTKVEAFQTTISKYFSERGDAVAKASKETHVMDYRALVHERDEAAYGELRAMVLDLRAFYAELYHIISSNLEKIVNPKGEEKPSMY

[8] = target: T1, proteins of HEK293T cells transiently overexpressing caspase-6 (Homo sapiens, UniProt P00390)
T1 sequence (P00390 44-522): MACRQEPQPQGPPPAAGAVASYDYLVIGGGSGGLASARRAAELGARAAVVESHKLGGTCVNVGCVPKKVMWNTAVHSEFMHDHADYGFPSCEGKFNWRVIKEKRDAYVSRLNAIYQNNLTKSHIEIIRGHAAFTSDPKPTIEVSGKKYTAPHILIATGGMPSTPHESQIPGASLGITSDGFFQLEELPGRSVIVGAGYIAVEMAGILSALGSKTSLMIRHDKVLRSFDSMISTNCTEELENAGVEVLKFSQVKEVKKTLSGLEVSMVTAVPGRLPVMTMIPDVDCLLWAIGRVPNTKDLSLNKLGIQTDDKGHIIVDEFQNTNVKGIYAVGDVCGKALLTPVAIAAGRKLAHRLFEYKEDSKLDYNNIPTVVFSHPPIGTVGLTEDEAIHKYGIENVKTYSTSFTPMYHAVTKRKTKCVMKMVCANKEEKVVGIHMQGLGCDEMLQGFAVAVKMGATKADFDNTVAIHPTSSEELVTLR

[9] = target: proteins of HEK293T cells transiently overexpressing caspase-6 (Homo sapiens, UniProt P37802); conditions: exp_ref Probe; protein TAGLN2 (P37802); analysis C6
Chain of proteins of HEK293T cells transiently overexpressing caspase-6 (Homo sapiens, UniProt P37802) (P37802 whole entry): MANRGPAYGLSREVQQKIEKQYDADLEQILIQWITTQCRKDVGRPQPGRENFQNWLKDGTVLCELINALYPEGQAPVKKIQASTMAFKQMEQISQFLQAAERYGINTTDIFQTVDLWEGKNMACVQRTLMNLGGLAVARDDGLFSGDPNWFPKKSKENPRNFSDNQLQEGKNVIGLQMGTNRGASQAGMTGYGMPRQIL

[10] = target: T2, proteins of HEK293T cells transiently overexpressing caspase-6 (Homo sapiens, UniProt P30084); conditions: exp_ref Probe; protein ECHS1 (P30084); analysis C6
T2 sequence (P30084 28-290): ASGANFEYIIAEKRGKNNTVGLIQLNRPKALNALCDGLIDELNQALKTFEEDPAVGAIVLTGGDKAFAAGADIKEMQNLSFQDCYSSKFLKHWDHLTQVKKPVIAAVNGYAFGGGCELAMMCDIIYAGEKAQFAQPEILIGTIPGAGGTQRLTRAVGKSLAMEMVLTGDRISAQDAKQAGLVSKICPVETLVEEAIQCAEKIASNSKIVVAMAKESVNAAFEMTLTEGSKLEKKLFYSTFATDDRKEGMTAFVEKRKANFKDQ

[11] = target: proteins of HEK293T cells transiently overexpressing caspase-6 (Homo sapiens, UniProt Q14152); conditions: exp_ref Probe; protein EIF3A (Q14152); analysis C6
Chain of proteins of HEK293T cells transiently overexpressing caspase-6 (Homo sapiens, UniProt Q14152) (Q14152 whole entry): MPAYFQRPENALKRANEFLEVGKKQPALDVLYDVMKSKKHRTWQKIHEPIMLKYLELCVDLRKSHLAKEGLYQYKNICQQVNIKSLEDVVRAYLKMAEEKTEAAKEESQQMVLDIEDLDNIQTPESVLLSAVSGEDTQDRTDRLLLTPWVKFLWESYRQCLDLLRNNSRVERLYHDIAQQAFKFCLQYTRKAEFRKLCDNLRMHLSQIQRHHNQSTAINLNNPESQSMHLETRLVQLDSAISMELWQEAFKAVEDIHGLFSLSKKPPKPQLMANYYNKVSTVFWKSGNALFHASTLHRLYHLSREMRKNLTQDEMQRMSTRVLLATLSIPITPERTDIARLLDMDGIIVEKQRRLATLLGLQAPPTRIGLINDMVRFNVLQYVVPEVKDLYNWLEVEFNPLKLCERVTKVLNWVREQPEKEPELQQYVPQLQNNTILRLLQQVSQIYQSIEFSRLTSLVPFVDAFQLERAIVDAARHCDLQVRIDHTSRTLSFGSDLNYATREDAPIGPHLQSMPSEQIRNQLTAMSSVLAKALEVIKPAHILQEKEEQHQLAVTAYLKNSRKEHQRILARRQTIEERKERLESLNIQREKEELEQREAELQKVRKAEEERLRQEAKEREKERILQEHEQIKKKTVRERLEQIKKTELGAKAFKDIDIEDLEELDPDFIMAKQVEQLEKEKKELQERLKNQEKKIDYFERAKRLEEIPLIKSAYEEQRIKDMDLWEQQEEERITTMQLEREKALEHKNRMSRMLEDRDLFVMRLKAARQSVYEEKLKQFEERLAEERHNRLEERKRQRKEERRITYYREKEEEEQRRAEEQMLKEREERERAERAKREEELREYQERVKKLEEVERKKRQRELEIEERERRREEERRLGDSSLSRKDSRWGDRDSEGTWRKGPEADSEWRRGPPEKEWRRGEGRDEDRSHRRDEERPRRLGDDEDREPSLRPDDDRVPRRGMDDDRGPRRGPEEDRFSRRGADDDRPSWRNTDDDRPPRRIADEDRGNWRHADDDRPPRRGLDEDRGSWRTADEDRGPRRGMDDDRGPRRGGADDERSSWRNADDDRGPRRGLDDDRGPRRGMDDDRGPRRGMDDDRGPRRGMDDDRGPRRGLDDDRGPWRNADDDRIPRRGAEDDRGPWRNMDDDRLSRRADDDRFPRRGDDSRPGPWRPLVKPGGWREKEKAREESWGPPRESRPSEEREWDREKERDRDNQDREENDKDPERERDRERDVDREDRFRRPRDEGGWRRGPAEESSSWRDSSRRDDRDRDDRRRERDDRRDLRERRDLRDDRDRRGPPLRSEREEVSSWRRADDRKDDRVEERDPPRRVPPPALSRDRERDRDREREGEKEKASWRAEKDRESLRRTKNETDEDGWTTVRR

[12] = target: T3, proteins of HEK293T cells transiently overexpressing caspase-6 (Homo sapiens, UniProt Q9UQ80); conditions: protein PA2G4 (Q9UQ80)
T3 sequence (Q9UQ80 1-394): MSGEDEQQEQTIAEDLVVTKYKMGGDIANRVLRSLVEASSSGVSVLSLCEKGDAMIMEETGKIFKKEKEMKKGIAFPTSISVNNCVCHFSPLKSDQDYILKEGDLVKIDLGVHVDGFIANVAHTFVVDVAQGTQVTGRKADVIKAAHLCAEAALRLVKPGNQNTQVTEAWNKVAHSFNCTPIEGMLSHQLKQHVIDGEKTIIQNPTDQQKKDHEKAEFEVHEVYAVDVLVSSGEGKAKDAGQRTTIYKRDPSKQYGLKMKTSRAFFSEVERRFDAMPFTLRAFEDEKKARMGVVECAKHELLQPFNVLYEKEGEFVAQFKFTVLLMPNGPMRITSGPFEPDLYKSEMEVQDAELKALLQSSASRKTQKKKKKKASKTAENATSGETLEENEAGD

[13] = target: proteins of HEK293T cells transiently overexpressing caspase-6 (Homo sapiens, UniProt P13639); conditions: protein EEF2 (P13639)
[14] = target: proteins of HEK293T cells transiently overexpressing caspase-6 (Homo sapiens, UniProt P08758); conditions: exp_ref Probe; protein ANXA5 (P08758); analysis C6
Chain of proteins of HEK293T cells transiently overexpressing caspase-6 (Homo sapiens, UniProt P08758) (P08758 whole entry): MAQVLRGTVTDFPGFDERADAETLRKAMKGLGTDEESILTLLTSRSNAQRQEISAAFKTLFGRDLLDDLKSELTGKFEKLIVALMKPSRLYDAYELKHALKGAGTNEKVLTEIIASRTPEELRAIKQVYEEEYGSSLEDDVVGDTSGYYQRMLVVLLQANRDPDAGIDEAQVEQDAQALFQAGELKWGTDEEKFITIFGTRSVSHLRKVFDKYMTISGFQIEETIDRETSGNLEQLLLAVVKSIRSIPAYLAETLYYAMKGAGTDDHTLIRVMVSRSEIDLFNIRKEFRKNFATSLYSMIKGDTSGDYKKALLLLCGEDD

[15] = target: proteins of HEK293T cells transiently overexpressing caspase-6 (Homo sapiens, UniProt Q15084); conditions: exp_ref Probe; protein PDIA6 (Q15084); analysis C6
Chain of proteins of HEK293T cells transiently overexpressing caspase-6 (Homo sapiens, UniProt Q15084) (Q15084 20-440): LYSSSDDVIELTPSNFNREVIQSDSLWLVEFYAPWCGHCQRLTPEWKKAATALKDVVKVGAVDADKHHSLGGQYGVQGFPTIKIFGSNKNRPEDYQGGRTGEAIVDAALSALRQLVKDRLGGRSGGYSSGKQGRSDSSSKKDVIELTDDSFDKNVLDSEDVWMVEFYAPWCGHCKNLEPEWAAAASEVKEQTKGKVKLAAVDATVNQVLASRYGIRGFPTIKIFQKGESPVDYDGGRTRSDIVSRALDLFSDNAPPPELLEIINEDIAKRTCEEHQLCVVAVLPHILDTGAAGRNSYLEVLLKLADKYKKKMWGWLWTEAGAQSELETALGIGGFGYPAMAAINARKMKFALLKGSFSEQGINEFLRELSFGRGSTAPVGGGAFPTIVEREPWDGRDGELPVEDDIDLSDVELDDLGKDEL

[16] = target: proteins of HEK293T cells transiently overexpressing caspase-6 (Homo sapiens, UniProt Q9Y617); conditions: Probe; protein PSAT1 Q9Y617
[17] = target: proteins of HEK293T cells transiently overexpressing caspase-6 (Homo sapiens, UniProt P33176); conditions: Probe; protein KIF5B P33176
Chain of proteins of HEK293T cells transiently overexpressing caspase-6 (Homo sapiens, UniProt P33176) (P33176 whole entry): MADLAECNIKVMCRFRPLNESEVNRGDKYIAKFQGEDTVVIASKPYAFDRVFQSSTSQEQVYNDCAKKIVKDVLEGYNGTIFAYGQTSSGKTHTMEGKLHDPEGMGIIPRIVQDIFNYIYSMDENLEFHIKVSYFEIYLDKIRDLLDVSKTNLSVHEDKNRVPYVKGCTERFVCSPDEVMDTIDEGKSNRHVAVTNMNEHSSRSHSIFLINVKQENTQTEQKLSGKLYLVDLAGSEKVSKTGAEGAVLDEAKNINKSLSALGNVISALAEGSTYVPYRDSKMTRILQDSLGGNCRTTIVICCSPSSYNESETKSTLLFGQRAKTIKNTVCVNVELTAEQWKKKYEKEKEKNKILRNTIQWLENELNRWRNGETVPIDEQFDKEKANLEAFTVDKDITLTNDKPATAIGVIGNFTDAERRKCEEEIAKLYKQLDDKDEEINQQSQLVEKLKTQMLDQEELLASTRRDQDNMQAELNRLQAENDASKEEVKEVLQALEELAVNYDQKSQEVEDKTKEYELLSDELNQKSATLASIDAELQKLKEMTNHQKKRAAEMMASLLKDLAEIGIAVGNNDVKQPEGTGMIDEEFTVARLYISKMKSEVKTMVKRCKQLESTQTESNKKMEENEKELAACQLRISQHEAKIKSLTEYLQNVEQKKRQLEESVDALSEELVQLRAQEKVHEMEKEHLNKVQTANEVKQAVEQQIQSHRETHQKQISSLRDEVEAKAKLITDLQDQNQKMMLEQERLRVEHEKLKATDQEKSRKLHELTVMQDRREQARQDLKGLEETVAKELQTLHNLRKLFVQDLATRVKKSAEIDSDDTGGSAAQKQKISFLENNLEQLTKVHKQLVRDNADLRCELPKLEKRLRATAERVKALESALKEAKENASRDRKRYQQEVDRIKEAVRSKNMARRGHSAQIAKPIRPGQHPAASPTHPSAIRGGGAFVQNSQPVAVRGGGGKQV

In the case of `C#CCOc1ccc([C@@H]2C[C@@H](C(=O)Nc3ccc(OC(F)(F)F)cc3)CN(S(=O)(=O)C=C)C2)cc1` (relative stereo) [13-t], the enrich.exp.med [1] is reported as 0.8165, the enrich.exp.med [2] is reported as 2.033 and the enrich.exp.med ([3]; exp_ref Probe, analysis C6) is reported as 0.8638. It also gave an enrich.exp.med.lin [3] of 1.82, an enrich.exp.med.log2 [3] of 0.8638 and an enrich.exp.med [4] of 0.8069. It also gave an enrich.exp.med [5] of 0.1212, an enrich.exp.med [6] of 1.0337 and an enrich.exp.med [7] of 1.487. It also gave an enrich.exp.med ([8]; Probe, protein GSR P00390) of -1.323, an enrich.exp.med.lin ([8]; protein GSR (P00390)) of 0.3998 and an enrich.exp.med.log2 ([8]; protein GSR (P00390)) of -1.323. For the same molecule, the enrich.exp.med [9] was 0.7525, the enrich.exp.med [10] was 0.4283 and the enrich.exp.med [11] was 0.8938. For the same molecule, the enrich.exp.med.lin [12] was 2.618, the enrich.exp.med.log2 [12] was 1.389 and the enrich.exp.med ([12]; exp_ref Probe, analysis C6) was 1.389. The enrich.exp.med ([13]; exp_ref Probe, analysis C6) was 0.2961, the enrich.exp.med.lin [13] was 1.228 and the enrich.exp.med.log2 [13] was 0.2961. For the same molecule, the enrich.exp.med [14] was 0.2384, the enrich.exp.med [15] was 0.9602 and the enrich.exp.med [16] was -1.015. The enrich.exp.med [17] was -5.169.
